Test results: US10618885B2, “Compounds that activate autophagy” (Macau University of Science and Technology, priority 2018, dated 2020)
Read-outs that look alike come from different tables or passages of the source.

Tests used:
Format in all cases: cell-based
HeLa cells = test: Annexin V cell death analysis by flow cytometry, with or without wortmannin; details: 24 hours; for compound-mediated cell death on blocking of autophagy by wortmannin: 5 μM compound plus 1 μM wortmannin; for percentage of cell death: 5 μM compound, annexin V staining, without wortmannin
Procedure: Apoptosis was detected by Annexin V staining kit (BD Biosciences, San Jose, Calif., USA). In brief, cells were exposed to the indicated concentrations of […] for 24 hours. Cells were then harvested and analyzed by flow cytometry using FITC-Annexin V and Propidium Iodide staining according to the manufacturer's instructions. Apoptotic cells were quantitatively counted by a flow cytometer (BD FACSAria III, San Jose, Calif., USA). Data acquisition and analysis were performed with CellQuest (BD Biosciences, San Jose, Calif., USA) from triple independent experiments.
To investigate whether the autophagy induced by compounds 2a, 2b, 3a, and 4a contributes to cell death, Annexin V cell death analysis was conducted. HeLa cells treated with these compounds (5 μM) in the presence or absence of 1 μM of wortmannin for 24 hours were assayed by flow cytometry after annexin V staining. Bar charts of FIGS. 5C and 5E represent the quantitation of cell death (%).

[1] = tested on: LC3 conversion (LC3-I to LC3-II) in HeLa cells; test: Western blot for autophagic marker LC3 conversion in HeLa cells; details: 24 hours, three concentrations, normalised to β-actin
Procedure: After drug treatment, adherent and floating cells were lysed with RIPA lysis buffer. Protein concentrations were determined using the Bio-Rad protein assay (Bio-Rad Laboratories, Inc., Hercules, Calif., USA). The cell lysates of samples were subjected to electrophoresis on SDS polyacrylamide gels and transferred to Hybond enhanced chemiluminescence nitrocellulose membranes (Amersham Biosciences, Piscataway, N.J.), which were then blocked with 5% non-fat dry milk protein for 1 hour. Membranes were then incubated with the indicated primary antibodies overnight at 4° C. The binding of the antibody was visualized by peroxidase-coupled secondary antibody using the ECL (enhanced chemiluminescence) Western Blotting Detection Reagents (Invitrogen, Paisley, Scotland, UK). Band intensities were quantified by using the software ImageJ (NIH, Bethesda, Md., USA).
The presence of the autophagy marker protein, LC3-II was determined in HeLa cells by western blot analysis. HeLa cancer cells were treated with dauricine (Dau) or compounds 2a-4b with three indicated concentrations for 24 hours. Cell lysates were analyzed by Western blot for LC3 conversion ([…]) and β-actin. The western blot was shown in FIGS. 4A, 4C, 4E, 4G, 4I, 4K, and 4M. LC3-II band intensities were quantified using densitometric analysis and normalised to β-actin. The results were shown in FIGS. 4B, 4D, 4F, 4H, 4J, 4L and 4N. Data are expressed as a fold change relative to the DMSO-treated negative control. Bars are representatives of three independent experiments. Error bars, SEM. *, P<0.05; **, P<0.01; ***, P<0.001.

HeLa cancer cells = test: MTT cytotoxicity assay in HeLa cancer cells
Procedure: All test compounds were dissolved in DMSO (Dimethyl sulfoxide) at final concentrations of 50 mmol/L and stored at −20° C. before use. Cytotoxicity was assessed using the 3-(4, 5-dimethylthiazol-2-yl)-2, 5-diphenyltetrazolium bromide (MTT) (5.0 mg/ml) assay. Briefly, 4×10^3 cells were seeded per well in 96-well plates before drug treatment. After overnight culture, the cells were then exposed to different concentrations of test compounds (0.039-100 μmol/L) for 72 hours. Cells without drug treatment were used as control. Subsequently, MTT (10 μL) was added to each well and incubated at 37° C. for 4 hours followed by the addition of 100 μL solubilization buffer (10% SDS (Sodium dodecyl sulfate) in 0.01 mol/L HCl) and overnight incubation. A570 nm was determined from each well on the next day. The percentage of cell viability was calculated using the following formula: Cell viability (%)=Atreated/Acontrol×100. Data were obtained from triplication independent experiments.
FIG. 1 is a graph 100 showing cell viability of HeLa cells treated with dauricine, N-desmethyldauricine, and compounds 2a-4b. HeLa cancer cells in 96 well-plates were treated with 0 to 20 μM of dauricine (Dau), N-desmethyldauricine (NDau) and dauricine derivatives (2a-4b) for 72 hours. Cell cytotoxicity was then assessed using the 3-(4, 5-dimethylthiazol-2-yl)-2, 5-diphenyltetrazolium bromide (MTT) (5.0 mg/ml) assay. The IC50 values shown in FIG. 1 are mean values of three independent experiments.

[2] = tested on: GFP-LC3 stable HeLa cells; test: Autophagy LC3 puncta detection in GFP-LC3 stable HeLa cells; details: 24 hours; for formation of GFP-LC3 puncta (fluorescence images): compared with untreated cells; for percentage of cells with GFP-LC3 puncta (dose dependence): three concentrations
Procedure: The detection of LC3 autophagic puncta was conducted using GFP-LC3 stable HeLa cancer cells as described below. In brief, compounds-treated GFP-LC3-HeLa cells on cover slips were fixed with 4% paraformaldehyde (Sigma) for 20 min at room temperature and then rinsed with PBS (phosphate-buffered saline). The coverslips were then mounted with FLUORSAVE™ mounting media (Calbiochem, San Diego, Calif., USA) for fluorescence imaging and the localization of LC3 autophagosomes were captured under the API Delta Vision Live-cell Imaging System (Applied Precision Inc., GE Healthcare Company, Washington, USA). To quantify autophagy, guidelines were followed to monitor autophagy, the percentage of cells with punctuate LC3 immunofluorescence staining was calculated by counting the number of the cells showing the increased punctuate pattern of LC3 fluorescence (≥10 dots/cell) in immunofluorescence-positive cells over the total number of cells in the same field. A minimum of 1000 cells from randomly selected fields were scored.
FIG. 2A-3H show identification of compounds 2a-4b with autophagic activities. GFP-LC3 puncta in compound-treated GFP-LC3-HeLa cells were detected. GFP-LC3 stable HeLa cells were treated with DMSO (−ve Ctrl) or the indicated concentrations of dauricine (Dau), N-desmethyldauricine (NDau) and dauricine derivatives (2a-4b) for 24 hours. Representative fluorescence images from the highest tested concentration of compound captured at 60× magnification were shown; scale bar, 15 μm. Bar charts represent the quantitation of autophagic cells. The percentages of autophagic cells were calculated as the number of cells with GFP-LC3 puncta (≥10 puncta/cell) divided by the total number of GFP-positive cells in the same field.

[3] = HeLa cancer cells, 72 hours, MTT, mean of three independent experiments, read-out: IC50 (cytotoxicity)

For `COC[C@H]1OC(=O)c2coc3c2[C@@]1(C)C1=C(C3=O)[C@@H]2CCC(=O)[C@@]2(C)C[C@H]1OC(C)=O` [wortmannin, reference compound], the “cytotoxic effect of wortmannin alone” value (HeLa cells; wortmannin alone (1 μM)) was “no cytotoxic effect”.
For `CCN(C)C(=O)Oc1ccc(CC2c3cc(OC)c(OC)cc3CCN2C)cc1Oc1ccc(CC2c3cc(OC)c(OC)cc3CCN2C)cc1` (centres unmarked) [Compound 2d], the “conversion of LC3-I to LC3-II (fold change relative to DMSO control)” value [1] was “increased the conversion of LC3-I to LC3-II in a dose dependent manner”.
With `COc1cc2c(cc1OC)C(Cc1ccc(Oc3cc(CC4c5cc(OC)c(OC)cc5CCN4C)ccc3OS(=O)(=O)c3ccc(C)cc3)cc1)N(C)CC2` (centres unmarked) [Compound 4a] the IC50 (HeLa cancer cells; [3]) was 6.1 µM, the “conversion of LC3-I to LC3-II (fold change relative to DMSO control)” value [1] was “increased the conversion of LC3-I to LC3-II in a dose dependent manner” and the “compound-mediated cell death on blocking of autophagy by wortmannin” value (“compound-mediated cell death on blocking” for short) (HeLa cells) was “significantly inhibited”. The “percentage of cell death” value (HeLa cells) was “markedly increased the percentage of cell death”.
For `COc1cc2c(cc1OC)[C@@H](Cc1ccc(Oc3cc(C[C@H]4NCCc5cc(OC)c(OC)cc54)ccc3O)cc1)N(C)CC2` [N-desmethyldauricine, reference compound], the IC50 (HeLa cancer cells) was 15.8 µM, the “formation of GFP-LC3 puncta (fluorescence images)” value [2] was “increased formation of GFP-LC3 puncta” and the “percentage of cells with GFP-LC3 puncta (dose dependence)” value [2] was “induced autophagic puncta in HeLa cells in a dose-dependent manner”. For the same molecule, the “conversion of LC3-I to LC3-II (fold change relative to DMSO control)” value [1] was “increased the conversion of LC3-I to LC3-II in a dose-dependent manner”.
`COc1cc2c(cc1OC)[C@@H](Cc1ccc(Oc3cc(C[C@@H]4c5cc(OC)c(OC)cc5CCN4C)ccc3O)cc1)N(C)CC2` [dauricine, reference compound] was tested, and the IC50 (HeLa cancer cells; Homo sapiens, HeLa, 72 h, read-out: IC50 (cytotoxicity)) was 15.5 µM, the “formation of GFP-LC3 puncta (fluorescence images)” value [2] was “increased formation of GFP-LC3 puncta” and the “percentage of cells with GFP-LC3 puncta (dose dependence)” value [2] was “induced autophagic puncta in HeLa cells in a dose-dependent manner”. For the same molecule, the “conversion of LC3-I to LC3-II (fold change relative to DMSO control)” value [1] was “increased the conversion of LC3-I to LC3-II in a dose-dependent manner”.
`COc1cc2c(cc1OC)C(Cc1ccc(Oc3cc(CC4c5cc(OC)c(OC)cc5CCN4C)ccc3OS(C)(=O)=O)cc1)N(C)CC2` (centres unmarked) [Compound 4b] was tested, and the “conversion of LC3-I to LC3-II (fold change relative to DMSO control)” value [1] was “increased the conversion of LC3-I to LC3-II in a dose dependent manner”.
`COc1cc2c(cc1OC)C(Cc1ccc(Oc3cc(CC4c5cc(OC)c(OC)cc5CCN4C)ccc3OC(=O)c3ccco3)cc1)N(C)CC2` (centres unmarked) [Compound 3b] was tested, and the “conversion of LC3-I to LC3-II (fold change relative to DMSO control)” value [1] was “increased the conversion of LC3-I to LC3-II in a dose dependent manner”.
For `COc1cc2c(cc1OC)C(Cc1ccc(Oc3cc(CC4c5cc(OC)c(OC)cc5CCN4C)ccc3OC(=O)c3ccccc3)cc1)N(C)CC2` (centres unmarked) [Compound 3a], the IC50 (HeLa cancer cells; [3]) was 6.44 µM, the “conversion of LC3-I to LC3-II (fold change relative to DMSO control)” value [1] was “increased the conversion of LC3-I to LC3-II in a dose dependent manner” and the “compound-mediated cell death on blocking” value (HeLa cells) was “significantly inhibited”. The “percentage of cell death” value (HeLa cells) was “markedly increased the percentage of cell death”.
`COc1cc2c(cc1OC)C(Cc1ccc(Oc3cc(CC4c5cc(OC)c(OC)cc5CCN4C)ccc3OC(=O)N(C)c3ccccc3)cc1)N(C)CC2` (centres unmarked) [Compound 2b] was tested, and the IC50 (HeLa cancer cells; [3]) was 6.72 µM, the “conversion of LC3-I to LC3-II (fold change relative to DMSO control)” value [1] was “increased the conversion of LC3-I to LC3-II in a dose dependent manner” and the “compound-mediated cell death on blocking” value (HeLa cells) was “significantly inhibited”. The “percentage of cell death” value (HeLa cells) was “markedly increased the percentage of cell death”.
In the case of `COc1cc2c(cc1OC)C(Cc1ccc(Oc3cc(CC4c5cc(OC)c(OC)cc5CCN4C)ccc3OC(=O)N(C)OC)cc1)N(C)CC2` (centres unmarked) [Compound 2f], the “conversion of LC3-I to LC3-II (fold change relative to DMSO control)” value [1] is reported as “increased the conversion of LC3-I to LC3-II in a dose dependent manner”.
For `COc1cc2c(cc1OC)C(Cc1ccc(Oc3cc(CC4c5cc(OC)c(OC)cc5CCN4C)ccc3OC(=O)N3CCOCC3)cc1)N(C)CC2` (centres unmarked) [Compound 2g], the “conversion of LC3-I to LC3-II (fold change relative to DMSO control)” value [1] was “increased the conversion of LC3-I to LC3-II in a dose dependent manner”.
`COc1cc2c(cc1OC)C(Cc1ccc(Oc3cc(CC4c5cc(OC)c(OC)cc5CCN4C)ccc3OC(=O)N(C)C)cc1)N(C)CC2` (centres unmarked) [Compound 2c] was tested, and the “conversion of LC3-I to LC3-II (fold change relative to DMSO control)” value [1] was “increased the conversion of LC3-I to LC3-II in a dose dependent manner”.
For `CCN(CC)C(=O)Oc1ccc(CC2c3cc(OC)c(OC)cc3CCN2C)cc1Oc1ccc(CC2c3cc(OC)c(OC)cc3CCN2C)cc1` (centres unmarked) [Compound 2e], the “conversion of LC3-I to LC3-II (fold change relative to DMSO control)” value [1] was “increased the conversion of LC3-I to LC3-II in a dose dependent manner”.
`COc1cc2c(cc1OC)C(Cc1ccc(Oc3cc(CC4c5cc(OC)c(OC)cc5CCN4C)ccc3OC(=O)N(c3ccccc3)c3ccccc3)cc1)N(C)CC2` (centres unmarked) [Compound 2a] was tested, and the IC50 (HeLa cancer cells; [3]) was 5.44 µM, the “conversion of LC3-I to LC3-II (fold change relative to DMSO control)” value [1] was “increased the conversion of LC3-I to LC3-II in a dose dependent manner” and the “compound-mediated cell death on blocking” value (HeLa cells) was “significantly inhibited”. The “percentage of cell death” value (HeLa cells) was “markedly increased the percentage of cell death”.
